Measurements from patent publication US6417235B2, “Method and use of α-amino-β-mercapto-ethane derivatives as dicarbonyl scavengers for treatment of conditions resulting from protein, lipid, and DNA damage” (University of Kentucky Research Foundation, priority 2000, dated 2002).

Assays:
histone H1 = test: Histone H1 crosslinking by 12% SDS-PAGE with silver staining; type: biochemical, calf; conditions: 5 mM; histone H1, ADP-ribose reaction system
Method: The following screening scheme is used (see Table 1): AGE-fluorescence is determined at the beginning and after five days of incubation. Test compounds that are inherently fluorescent (designated false negatives) were identified by the initial fluorescence measurement (See Table 1, NADH for example). Since these are compounds of uncertain activity, they are diverted directly to the second stage of the screen. Aminoguanidine, a known glycation inhibitory agent, was used as a positive control for suppression of the increase on AGE-fluorescence. After five days incubation and plate reading, fluorescence quenchers (designated false positives) are excluded by measuring the quenching activity of the test compound by addition of AGE modified protein having known fluorescence activity to one microtiter plate well containing test compound in the complete reaction mixture. For this, AGE-BSA is used as the AGE-type fluorescence standard. This AGE-BSA test excludes false positives compounds that function by fluorescence quenching. If fluorescence quenching occurs the test compound is excluded from further screening. […] The protein is visualized by silver staining of the gel. […] A compound that passes the first and second stage of the screen is considered a glycation inhibitor and is further evaluated for biological activity as described below. […]

[1] = Alpha-dicarbonyl trapping followed by HPLC
Method: Phenylglyoxal (10 mM) and D-penicillamine (20 mM) were reacted in 50 mM KH2PO4 buffer, pH 7.4 at room temperature. The progress of he reaction was monitored by HPLC analysis of reaction aliquots at 254 nm. After 40 minutes reaction time more than 90% conversion of the phenylglyoxal peak into a single product peak of higher retention time was observed. […] UV detection was at 254 nm. As shown by the HPLC analysis of the reaction system shown in FIG. 7, phenyglyoxal is fully reacted with D-penicillamine within 5 minutes. […] The reaction kinetics were studied at a phenylglyoxal concentration of […] and at 250 and 500 micromolar carbonyl scavenger concentration (D-penicillamine, aminoguanidine). Over the course of the reaction, aliquots were analyzed by HPLC. In the case of D-penicillamine, which required shorter sampling periods, reaction aliquots were taken every 20 seconds, and kept on dry ice until analysis. The initial reaction rates of phenylglyoxal with the test compounds were monitored by following the disappearance of phenylglyoxal over time. […] The measured first order rate constant (kst) was then used to calculate the second order rate constant (by applying the following equation: […]-carbonyl scavenger}. The calculated second order rate constants determined at the two reactant ratios were in good agreement.

Q: What does the source list for `CC(C)(S)[C@@H](N)C(=O)O` [D-Penicillamine]?
A: inhibition of histone H1 crosslinking (histone H1): inhibit histone H1 crosslinking; time until phenylglyoxal is fully reacted ([1]; HPLC analysis, FIG. 7): ≤ 5 min; conversion of the phenylglyoxal peak into a single product peak ([1]; phenylglyoxal 10 mM, D-penicillamine 20 mM, pH 7.4, room temperature, after 40 minutes): more than 90%
